For data set [1], the target named is hGal-3 protein (Homo sapiens, UniProt P17931). The data set is described as follows: Competition STD 1H NMR titration against reference ligand TDG (5). The class given is binding. The settings on record: for Kd: calculated from IC50 with Kd(ref.) of TDG and Lref 4 mM (Equation 2); for Kd / Relative STD Intensity of H-4 of TDG titrated by competitor: 303 K; for Relative STD Intensity of H-4 of TDG titrated by competitor: 40 μM hGal-3, 4 mM TDG (5); for IC50: competitor concentration for 50% displacement of 4 mM TDG (5), 40 μM hGal-3, exponential fit; for Relative Affinity, Kd (ref.)/Kd (comp.): referenced to TDG (5), times stronger binding than TDG. From the text:
The competition STD NMR method provides an opportunity to characterize moderately and strongly bound protein–ligand systems (KD = 10^−6 M − 10^−9 M), where the determination is not feasible in direct STD experiment due to kinetic reasons. In the competition experiment, the concentration of the target protein and the reference ligand is kept at a constant level. An STD spectrum of the starting sample state is obtained. Then, by adding the competitive ligand in increasing concentration step-by-step, the resonance signal changes in the STD spectra can be monitored. If the competitor ligand binds strongly to the target protein, a decrease in the STD signal intensities of the reference ligand is observed. If the IC50 value is reached before the equimolar ratio of the reference and the competitor ligand, it can be concluded that the competitor binds more strongly than the selected reference compound to the protein. The strength of the interaction can be quantified by the determination of the dissociation constant value (KD).
By plotting the relative STD ^1H NMR signal intensities of the H-4 proton of the reference compound (5) as a function of the concentration of the given competitor ligand, the IC50 values can be determined (Figure 4). The IC50 value gives the concentration of the competitor ligand required to halve the signal intensity of the reference ligand in the STD spectrum, so it provides the competitor concentration required for 50% displacement of the reference compound (5). IC50 values were calculated based on the equation of the exponential function fitted to the points measured.
The dissociation constant of the interaction was calculated according to the following equation (Equation (1)):(1) Kd(ref.)=Lref×Kd(comp.)/IC50−Kd(comp.)
By rearranging this equation, the Kd value of the competitor ligand (Kd(comp.)) can be obtained (Equation (2)):(2) Kd(comp.)=Kd(ref.)×IC50/Lref+Kd(ref.) where Kd(ref.) refers to the dissociation constant of the reference ligand, Lref is the concentration of the reference ligand, Kd(comp.) is the dissociation constant of the competitor compound, and IC50 is the concentration of the competitor compound at half-signal intensity.

The conditions of data set [2]: for Aggregation during the series of STD titration experiments: up to 1:1 reference and competition ligand ratio (4 mM).
Method: We chose the TDG (5), a well-known, moderately bound ligand of hGal-3, as a reference ligand for our competition STD ^1H NMR experiments. As a first step, we recorded an STD ^1H NMR spectrum on the starting sample, which always contained 40 μM hGal-3 protein and 4 mM TDG (1:100 protein reference ligand ratio). Then, the titration was started by adding the synthesized competitor ligand into the NMR sample step-by-step, and we performed STD experiments on each solution composition. […] Thus, the 100% STD effect was determined as the H-4 intensity value of TDG (5) in the initial sample state, and its relative decrease caused by adding the competitor ligand in increasing concentration was measured in each titration step (Table 1).
All ^1H STD NMR experiments were recorded on a Bruker Avance Neo 700 MHz spectrometer equipped with a 5 mm z-gradient (TCI) triple-tuned Prodigy cryoprobe. The measurements were performed at a temperature of 303 K. The data acquisition and processing were performed with TopSpin 3.6.2 and 4.1.1 software. Samples were prepared in 10 mM phosphate buffer solution (140 mM NaCl/KCl, pH = 7.4) in D2O. The initial sample contained 40 μM of hGal-3 protein and 4 mM of compound 5 for each experiment. Competitor ligands were added to the initial samples from stock solutions of different concentrations so that the smallest volume (2 μL) could be added in each titration step. […] The protein resonances were selectively irradiated in competition STD experiments by Eburp (90°) excitation pulses, with a length of 50 ms each with a maximum B1 field strength of 75 Hz yielding a total irradiation time of 3 s. The off-resonance pulse frequency was set to −40 ppm and the on-resonance frequency to 0 ppm. Off- and on-resonance data were recorded at alternate scans, and the corresponding FIDs were collected in separate memories of subsequent processing files, and STD spectra were produced after subtraction of the two subspectra. Competition STD spectra were typically recorded with 1200 repetitions (NS = 8, L4 = 150) to ensure an adequate signal-to-noise ratio for the analysis.
Data set [3] has as its target hGal-3. Details: method as in PMID 32955737. Conditions: reference ligand TDG, ITC; cited from earlier work.

hGal-3 protein, sequence (P17931 whole entry): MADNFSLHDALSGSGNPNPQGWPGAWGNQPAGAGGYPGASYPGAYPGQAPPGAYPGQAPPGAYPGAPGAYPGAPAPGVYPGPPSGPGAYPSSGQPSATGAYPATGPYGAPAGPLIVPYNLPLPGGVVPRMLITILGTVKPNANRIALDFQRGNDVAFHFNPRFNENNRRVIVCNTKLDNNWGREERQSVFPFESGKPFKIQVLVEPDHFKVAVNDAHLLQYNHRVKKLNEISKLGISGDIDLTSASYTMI

Take `OC[C@H]1O[C@@H](S[C@@H]2O[C@H](CO)[C@H](O)[C@H](OCc3ccc4ccccc4n3)[C@H]2O)[C@H](O)[C@@H](OCc2ccc3ccccc3n2)[C@H]1O` [Compound 1, Bis-{3-O-[(Quinoline-2-yl)Methyl]-β-D-Galactopyranosyl}-Sulfane]: in data set [1], the Kd was 1.7 µM. The “Relative STD Intensity of H-4 of TDG titrated by competitor” value (“Relative STD Intensity” for short) in data set [1] (competitor 40 μM) stood at 78%; in data set [1] (competitor 80 μM) it was 65%; in data set [1] (competitor 100 μM), 61%; in data set [1] (competitor 250 μM) it was 33%; in data set [1] (competitor 300 μM) it was 24%; in data set [1] (competitor 4000 μM) it was 0%. Further, the IC50 in data set [1] worked out at 134 µM. In data set [1], the “Relative Affinity, Kd (ref.)/Kd (comp.)” value is 30. The “Aggregation during the series of STD titration experiments” value in data set [2] is “did not observe any aggregation”.

As to `OC[C@H]1O[C@@H](S[C@@H]2O[C@H](CO)[C@H](O)[C@H](OCc3ccc4ccccc4c3)[C@H]2O)[C@H](O)[C@@H](OCc2ccc3ccccc3c2)[C@H]1O` [Compound 2, Bis-{3-O-[(Naphtalene-2-yl)Methyl]-β-D-Galactopyranosyl}-Sulfane], in data set [1], the Kd was 0.55 µM. Moreover, the “Relative STD Intensity” value turned out to be 86% in data set [1] (competitor 10 μM); 68% in data set [1] (competitor 20 μM); 59% in data set [1] (competitor 30 μM); 55% in data set [1] (competitor 40 μM); 37% in data set [1] (competitor 50 μM); 33% in data set [1] (competitor 60 μM). Moreover, the “Relative STD Intensity” value in data set [1] (competitor 100 μM) stood at 24%. The half-inhibitory concentration (IC50) in data set [1] came to 43 µM. In addition, the “Relative Affinity, Kd (ref.)/Kd (comp.)” value in data set [1] amounted to 94. Also, the Solubility result in data set [2] (pH 7.4) is on record as “uncertain”.

With `OC[C@H]1O[C@@H](S[C@@H]2O[C@H](CO)[C@H](O)[C@H](OCc3ccccc3)[C@H]2O)[C@H](O)[C@@H](OCc2ccccc2)[C@H]1O` [Compound 3, Bis-(3-O-Benzyl-β-D-Galactopyranosyl)-Sulfane], the dissociation constant (Kd) in data set [1] was 2.19 µM. For the same molecule, the “Relative STD Intensity” value is given as 85% in data set [1] (competitor 40 μM); 75% in data set [1] (competitor 80 μM); 64% in data set [1] (competitor 120 μM); 50% in data set [1] (competitor 160 μM); 31% in data set [1] (competitor 250 μM); 28% in data set [1] (competitor 400 μM). The “Relative STD Intensity” value in data set [1] (competitor 4000 μM) is given as 0%. This molecule also yielded a concentration for half-maximal inhibition (IC50) in data set [1] of 172 µM. Further, the “Relative Affinity, Kd (ref.)/Kd (comp.)” value in data set [1] stood at 24. Further, the “Aggregation during the series of STD titration experiments” value in data set [2] was “did not observe any aggregation”.

For the molecule `OC[C@H]1O[C@@H](S[C@@H]2O[C@H](CO)[C@H](O)[C@H](O)[C@H]2O)[C@H](O)[C@@H](O)[C@H]1O` [Compound 5, Bis-(β-D-Galactopyranosyl)-Sulfane, reference compound], the “Relative Affinity, Kd (ref.)/Kd (comp.)” value in data set [1] is on record as 1. In addition, the equilibrium dissociation constant (Kd) in data set [3] is 51.4 µM.

The record behind these values is PMC10855533, “Saturation Transfer Difference NMR and Molecular Docking Interaction Study of Aralkyl-Thiodigalactosides as Potential Inhibitors of the Human-Galectin-3 Protein” (International Journal of Molecular Sciences, 2024).
